Laboratory results as given in patent US11607419B2, “Inhibitors of RAC1 and uses thereof for inducing bronchodilatation” (INSTITUT NATIONAL DE LA SANTE ET DE LA RECHERCHE MEDICALE …, priority 2017, dated 2023).
“Also recorded” adds a separate entry of the source.

Key:
[1] = target: T1, Rac-GTP (Rac1 activity) in NIH3T3 cells (Mus musculus, UniProt P63001); assay: Rac activation: active Rac immunoprecipitation and immunoblot of Rac-GTP in fibroblasts stimulated by a Rac activator; format: cell-based; details: pre-incubated 1 h
T1 construct: endogenous in cells; host or cells: NIH3T3
Procedure: (§1) Cell culture, transfection and actin staining. NIH3T3 cells grew up in DMEM (Gibco; Invitrogen) containing 10% foetal bovine serum, 100 units/mL penicillin and 100 μg/mL streptomycin at 37° C. and 5% CO2. The culture medium was changed every 72 hours.
Analysis of Rac1 activity. In NIH3T3 cells lysates, Rac1 activity was evaluated by active Rac immunoprecipitation using anti-Rac-GTP antibody (26903, NewEast Biosciences). The precipitated active Rac was subjected to SDS-PAGE and detected by immunoblot with anti-Rac1 antibody (BD biosciences).

[2] = target: T2, RAC1 (Homo sapiens, UniProt P63000); assay: Surface plasmon resonance on immobilised Rac1; format: binding
Procedure: Surface plasmon resonance studies. SPR immobilization was performed at 25° C. Rac1, RhoA and Cdc42 purified proteins were diluted to 5 μg/mL in Na^+ acetate buffer (pH 5.0) and injected into sensor chip CM5 (GE Healthcare) in a Biacore T200 (GE Healthcare) that was activated with NHS/EDC buffer. Approximately 5,000 response units of the purified protein were captured on the biosensor chip. Biosensor chips were blocked by an injection of […] ethanolamine (pH 8.5). […] SPR analysis was performed at 25° C. in HBSEP running buffer (5% DMSO). When indicated, EDTA (20 mM) was added in running buffer.

[3] = target: T3, Rac2 (Homo sapiens, UniProt P15153); assay: Nucleotide exchange assay (mant-GTP/mant-GDP), Rac2; format: biochemical; details: 10 μM
T3 construct: Full-length human small GTPases carrying a 6-histidine tag fused to their C-terminus; 6-histidine tag (C); made in house; host or cells: E. coli
Description: (§2) Nucleotide exchange assays. Full-length human small GTPases carrying a 6-histidine tag fused to their C-terminus were expressed in E. coli and purified to homogeneity. Small GTPases were loaded with GDP or N-methylanthraniloyl-GDP (GDP/mant-GDP, JenaBiosciences) before nucleotide exchange kinetics experiments.
(§3) Nucleotide exchange kinetics were monitored by fluorescence of the mant fluorophore (λexc=360 nm, λem=440 nm) or tryptophan fluorescence (for Arf6; λexc=280 nm, λem=[…]) using a Cary Eclipse fluorimeter (Varian, Toulouse, France) at 30° C. under stirring. All kinetics assays were carried out in a buffer containing 50 mM Tris at pH 8, 300 mM NaCl, 2 mM MgCl2, 1 mM DTT and were started by addition of 100 μM N-methylanthraniloy-GTP or GTP (mant-GTP/GTP, JenaBiosciences). Nucleotide exchange kinetics were carried out at a concentration of small GTPases of 1 μM, either without GEF for spontaneous exchange, in the presence of 50 nM GEF for single kobs (s-1) determination. The kobs was determined from single-exponential fit of the fluorescence change. All experiments were carried out at least in triplicate.

[4] = target: T4, RhoG (Homo sapiens, UniProt P84095); assay: Nucleotide exchange assay, RhoG; format: biochemical; details: 10 μM
T4 construct: Full-length human small GTPases carrying a 6-histidine tag fused to their C-terminus; 6-histidine tag (C); made in house; host or cells: E. coli
Description: as §2, §3

[5] = target: T5, Rab35 (Homo sapiens, UniProt Q15286); assay: Nucleotide exchange assay, Rab35; format: biochemical; details: 10 μM
T5 construct: Full-length human small GTPases carrying a 6-histidine tag fused to their C-terminus; 6-histidine tag (C); made in house; host or cells: E. coli
Description: as §2, §3

[6] = target: T6, Arf6 (Homo sapiens, UniProt P62330); assay: Nucleotide exchange assay, Arf6; format: biochemical; details: 10 μM
T6 construct: Full-length human small GTPases carrying a 6-histidine tag fused to their C-terminus; 6-histidine tag (C); made in house; host or cells: E. coli
Description: as §2, §3

[7] = system: Rac1-dependent ruffle formation in NIH3T3 cells; assay: Rac activator-induced membrane ruffling (actin staining) in fibroblasts; format: cell-based
Procedure: as §1
After treatments, fibroblasts were fixed with 4% paraformaldehyde in PBS, permeabilized in PBS 0.5% Triton X-100, and incubated with 130 μg/mL of FITC-conjugated phalloidin (Sigma) to visualize F-actin. After staining, images were captured by a fluorescence microscope (Nikon). The actin cytoskeleton organization was analyzed to observe Rac1-dependent ruffle formation.

[8] = system: 3T3 cells migration; assay: Unidirectional cell migration; format: cell-based
Procedure: Unidirectional cell migration. Cells (1000/well) were seeded in a 96 well plate with […] fibronectin stripes (CytooPlates Motility, CYTOO) in medium with 1% SVF and allowed to spread for 4 hours before capturing time-lapse images for 24 hours (image/10 minutes) on a Widefield Leica DMI 6000B drove with Metamorph software. Cells speed was measured with ImageJ software.

[9] = system: fibroblast adhesion; assay: Cell adhesion assay using impedance technology; format: cell-based; details: fibroblasts
Procedure: Cell adhesion assay using impedance technology. Cells (10000/well) were seeded in a 96 well plate microtiter xCELLigence assay plate (E-Plate) (ACEA Biosciences Inc.) and placed on the Real-time xCELLigence Cell Analyzer (Roche Applied Science) platform at 37° C. to measure the “cell index” every 5 min for a period of 6 hours. The cell index unit is defined as (Rn−Rb)/15. Rn is the cell electrode impedance of the well when it contains cells. Rb is the background impedance of the well with the media alone.

[10] = system: murine bronchial rings (aSMC contraction); assay: Airways reactivity ex vivo: methacholine contraction of bronchial rings; details: bronchial rings from control mice, pre-incubated 1 h
Procedure: Airways reactivity ex vivo. Murine primary bronchi were cleaned, cut in rings and mounted on a multichannel isometric myograph in Krebs-Henseleit physiological solution (118.4 mM NaCl, 4.7 mM KCl, 2 mM CaCl2, 1.2 mM MgSO4, 1.2 mM KH2PO4, 25 mM NaHCO3 and 11 mM glucose) at 37° C. under oxygen. A pre-tension of 0.5 mN was applied. We constructed dose-response curves to methacholine (Sigma). When indicated, rings were pre-incubated 1 h before contraction with (2) (or compound A4.1). The wire myograph was connected to a digital data recorder (MacLab/4e, AD Instruments) and recordings were analyzed using LabChart v7 software (AD Instruments).

[11] = system: airway hyperresponsiveness; assay: Airway responsiveness in vivo (whole-body plethysmography, methacholine); design: species or system mice; details: mouse model of allergic asthma, acute nebulization (300 μl at 5 mM) 10 min before methacholine
Procedure: Animals use and airways responsiveness measurement in vivo. All experimental procedures and animal care were performed in accordance with the European Community Standards on the Care and Use of Laboratory Animals and approved by the local ethics committee (Comité d'Ethique en Expérimentation Animale des Pays de Loire). Airway responsiveness was assessed in conscious, unrestrained mice using a barometric, whole-body plethysmography (EMKA Technologies) by recording respiratory pressure curves in response to inhaled methacholine (Sigma) at concentrations of 0-40 mg/ml for 1 min. Airway responsiveness was expressed in enhanced pause (Penh) units. The Penh values measured after stimulation were averaged and expressed as the fold-increase over baseline values. When required, the Rac inhibitor (2) was nebulised (300 μl at 5 mM) 10 min before methacholine challenge.

[12] = target: T2, RAC1
[13] = target: T2, RAC1; details: compared with NSC23766
[14] = target: T2, RAC1; assay: Nucleotide exchange assay (mant-GTP/mant-GDP), Rac1; format: biochemical; design: Full-length human small GTPases carrying a 6-histidine tag fused to their C-terminus; 6-histidine tag (C); made in house; host or cells: E. coli; details: 10 μM
Description: as §2, §3

[15] = target: RhoA (Homo sapiens, UniProt P61586); assay: Nucleotide exchange assay, RhoA; format: biochemical; design: Full-length human small GTPases carrying a 6-histidine tag fused to their C-terminus; 6-histidine tag (C); made in house; host or cells: E. coli; details: 10 μM
Description: as §2, §3

T4 sequence (P84095 whole entry, the tested form may be a part): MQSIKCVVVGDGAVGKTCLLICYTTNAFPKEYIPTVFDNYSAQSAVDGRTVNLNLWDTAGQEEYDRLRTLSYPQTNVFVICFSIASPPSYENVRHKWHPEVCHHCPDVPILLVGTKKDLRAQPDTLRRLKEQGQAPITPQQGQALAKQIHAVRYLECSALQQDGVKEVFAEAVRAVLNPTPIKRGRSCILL
RhoA, sequence (P61586 whole entry, the tested form may be a part): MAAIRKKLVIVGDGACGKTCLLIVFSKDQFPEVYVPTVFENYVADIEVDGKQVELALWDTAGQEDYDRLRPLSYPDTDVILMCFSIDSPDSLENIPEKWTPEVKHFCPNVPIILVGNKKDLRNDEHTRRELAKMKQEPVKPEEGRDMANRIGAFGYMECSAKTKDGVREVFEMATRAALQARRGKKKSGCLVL
T6 sequence (P62330 whole entry, the tested form may be a part): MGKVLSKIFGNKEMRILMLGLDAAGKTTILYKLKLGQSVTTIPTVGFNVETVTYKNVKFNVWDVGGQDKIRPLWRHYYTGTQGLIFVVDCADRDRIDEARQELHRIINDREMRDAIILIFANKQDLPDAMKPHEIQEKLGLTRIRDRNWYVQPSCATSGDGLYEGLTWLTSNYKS
T5 sequence (Q15286 whole entry, the tested form may be a part): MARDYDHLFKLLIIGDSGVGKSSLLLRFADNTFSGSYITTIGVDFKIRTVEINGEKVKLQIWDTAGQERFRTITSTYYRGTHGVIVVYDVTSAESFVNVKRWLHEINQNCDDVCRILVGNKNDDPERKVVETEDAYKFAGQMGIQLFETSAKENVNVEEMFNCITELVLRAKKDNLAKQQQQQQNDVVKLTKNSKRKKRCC

- Rac activation (Rac-GTP level) by a Rac activator [1]: prevented
- SPR binding to Rac1 ([2]; 0.78-25 μM injected): binds Rac1
- SPR interaction with Rac1 nucleotide free ([2]; EDTA in running buffer): significantly increased
- Bmax GTP-binding on Rac2 [3]: decreased
- nucleotide exchange kinetics of RhoG [4]: did not alter
- nucleotide exchange kinetics of Rab35 [5]: did not alter
- nucleotide exchange kinetics of Arf6 [6]: did not alter
- IC50 [12]: 1 nM
- melting point: 136 °C
- Relative activity (NSC23766) [13]: >
- Bmax GTP-binding on Rac1 [14]: decreased
- nucleotide exchange kinetics of RhoA [15]: did not alter
Structure (SMILES): COc1ccc(OC)c(NS(=O)(=O)c2ccc(NC(=O)CCSc3ccc(C)cc3)cc2)c1 [Compound (2), N-(4-(N-(2,5-dimethoxyphenyl)sulfamoyl)phenyl)-3-(p-tolylthio)propanamide]
- IC50 ([7]; Mus musculus, NIH3T3, fibroblasts, dose-dependent inhibition): 0.67 nM
- efficiency of Rac activator to induce ruffle ([7]; added 1 h before Rac activation): blocks; also recorded: strongly decreased
- migration inhibition compared with NSC23766 [8]: higher inhibition
- migration rate of the cells [8]: decreases; also recorded: slow down
- adhesion inhibition compared with NSC23766 [9]: higher inhibition
- adhesion rate of the cells ([9]; 10 μm): decreases; also recorded: slow down
- maximal contraction induced by methacholine [10]: dose-dependent reduced
- airway hyperresponsiveness (AHR) [11]: prevented
